# Assay results: patent US20090170762A1, “Treatment of Diabetes Related Obesity” (UUTech Limited, priority 2005, published 2009)
# Ends that are not written are not given here.
# Assays:
# [1] = test system: BRIN-BD11 cells; assay: Insulin secretion from BRIN-BD11 cells; assay type: cell-based
# Method: Tissue Culture. Chinese Hamster Lung (CHL) fibroblast cells stably transfected with the human GIP-R were cultured in DMEM tissue culture medium containing 10%. (v/v) fetal bovine serum, 1% (v/v) antibiotics (100 U/ml penicillin, 0.1 mg/ml streptomycin) (all from Gibco, Paisley, Strathclyde, Scotland). BRIN-BD11 cells were cultured in RPMI-1640 tissue culture medium containing 10% (v/v) fetal bovine serum, 1% (v/v) antibiotics (100 U/ml penicillin, 0.1 mg/ml streptomycin) and 11.1 mm glucose. The origin and secretory characteristics of these cells have been described in detail previously (McClenaghan, N. H. et al., 1996, Diabetes 45:1132-1140). The cells were maintained in sterile tissue culture flasks (Corning Glass Works, Sunderland, UK) at 37° C. in an atmosphere of 5% CO2 and 95% air using a LEEC incubator (Laboratory Technical Engineering, Nottingham, UK).
# Methods. Insulin release from BRIN-BD11 cells was determined by use of cell monolayers as described previously (Gault, V. A. et al. 2002, Biochem. J. 367:913-920). In brief, BRIN-BD11 cells were seeded into 24-well plates (Nunc, Roskilde, Denmark) at a density of 1.5×10^5 cells per well and allowed to attach overnight in RPMI-1640 culture medium at 37° C. Acute tests for insulin secretion were preceded by 40 minutes pre-incubation at 37° C. in 1.0 ml Krebs Ringer Bicarbonate Buffer (KRBB, 115 mm NaCl, 4.7 mm KCl, 1.28 mm CaCl2, 1.2 mM MgSO4, 1.2 mm KH2PO4, 25 mM HEPES and 10 mm NaHCO3; pH 7.4 with NaOH) supplemented with 0.1% (w/v) BSA and 1.1 mM glucose. […] After 20 minutes incubation, the buffer was removed and used for measurement of insulin by radioimmunoassay (Flatt, P. R. and Bailey, C. J., 1981, Diabetologia 5:573-577).
# [2] = test system: ob/ob mice; assay: Acute antihyperglycaemic and insulin releasing activity with glucose and native GIP in ob/ob mice; assay type: in vivo, mouse; settings: 25 nmol/kg i.p. with GIP and glucose 18 mmol/kg, vs native GIP
# Method: (§1) Animals. Obese diabetic (ob/ob) mice derived from the colony maintained at Aston University, UK (Bailey C. J. et al., 1982, Int. J. Obes. 6:11-21) were used at 14-18 weeks of age. Animals were age-matched, divided into groups and housed individually in an air-conditioned room at 22±2° C. with a 12 hour light: 12 hour dark cycle (08:00-20:00 hr). Drinking water and a standard rodent maintenance diet (Trouw Nutrition, Cheshire, UK) were freely available. All animal experiments were carried out in accordance with the UK Animals (Scientific Procedures) Act 1986.
# Biochemical analysis. Plasma glucose was assayed by an automated glucose oxidase procedure ([…]) using a Beckman Glucose Analyzer II (Beckman Instruments, Galway, Ireland). Plasma insulin was assayed by radioimmunoassay.
# Methods. […] All test solutions were administered in a final volume of 5 ml/kg body weight. Blood samples were collected from the cut tip of the tail vein of conscious mice into chilled fluoride/heparin coated glucose microcentrifuge tubes (Sarstedt, Numbrecht, Germany) immediately prior to injection and at 15, 30 and 60 minutes post injection. Blood samples were immediately centrifuged using a Beckmnan microcentrifuge (Beckman Instruments, High Wycombe, Buckinghamshire, UK) for 30 seconds at 13,000×g. Plasma glucose was assayed using a Beckman Glucose Analyzer n (Beckman Instruments, High Wycombe, Buckinghamshire, UK) (Stevens, J. F., 1971, Clin. Chim. Acta 32:199-201) and plasma insulin was determined by RIA (Flatt, P. R. and Bailey, C. J., 1981, Diabetologia 5:573-577). All animal studies were carried out in accordance with the UK Animals (Scientific Procedures) Act 1986.
# [3] = test system: ob/ob mice; assay: 14 once-daily injections of GIP analogues in ob/ob mice; assay type: in vivo, mouse; settings: 14 days daily, insulin 50 U/kg
# Method: as §1
# Methods. […] Intraperitoneal glucose tolerance (18 mmol/kg body wt) and insulin sensitivity (50 U/kg body wt) tests were performed at the end of the study period. Blood samples taken from the cut tip of the tail vein of conscious mice at the times indicated in the Figures were immediately centrifuged using a Beckman microcentrifuge (Beckman Instruments, UK) for 30 seconds at 13,000×g. The resulting plasma was then aliquoted into fresh Eppendorf tubes and stored at −20° C. prior to glucose and insulin determinations.
# [4] = test system: adult ob/ob mice; settings: daily 11 days (Gault 2005); cited from earlier work
sequence,measurement,setting,value
YAPGTFISDYSIAMDKIHQQDFVNWLLAQKGKKNDWKHNITQ [(Pro^3)GIP],Maximal insulin response (% GIP max),"[1]; BRIN-BD11 cells, 5.6 mm glucose, 20 min",53 ± 5 % GIP max
same,Insulin response in presence of 10^-7 M GIP (% GIP max),"[1]; BRIN-BD11 cells, 5.6 mm glucose, in presence of 10^-7 M native GIP",64 ± 2 % GIP max
same,effect on GIP-stimulated insulin secretion,[1]; in presence of GIP (10^-7 m),significantly inhibited
same,plasma glucose and insulin profiles when administered together with native GIP,[2],significantly inhibited the action of GIP
same,hypoglycemic action of insulin,[3],significantly augmented
same,features of type 2 diabetes,[4],improved many of the characteristic features of type 2 diabetes
